Assay in all cases: inhibition of tumour cell growth, NCI panel, 48 h
Assay [1] relates to SNB-19 CNS.
Assay [2] concerns SNB-75 CNS.
The subject of assay [3] is HOP-62 NSCLC.
Assay [4] has as its system LOX IMVI melanoma.
Assay [5] deals with OVCAR-5 ovarian.
The subject of assay [6] is NCI-H226 lung.
Assay [7] concerns RPMI-8226 leukemia.
Assay [8] has as its system NCI-H460 lung.
Assay [9] relates to TK-10 renal.
Assay [10] has as its system OVCAR-3 ovarian.

Values joined by “and” are separate entries in the source; they are usually repeats but may differ in a detail not shown here. Equal entries are not always repeated.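 Values below derive from 48-hour exposures of cells grown in 96-well plates, with endpoints linearly interpolated between the two concentrations bracketing the appropriate inhibition level. GI50: concentration for 50% inhibition of growth. TGI marks complete inhibition of growth.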 A value given as a limit tells only on which side of the number the result lay.

As to `O=C(O)C1CC=CCC1C(=O)Nc1cccc(O)c1` (stereo unspecified), the TGI in assay [1], in [2], in [3], in assay [4], in assay [5] and in [6] was above 100 µM throughout. Besides, the TGI in assay [7], in assay [8], in assay [9] and in [10] was above 100 µM throughout.
With `c1ccc(CN2CCc3[nH]c4ccccc4c3C2)cc1`, the TGI is above 95.7 µM in [1]; above 100 µM in assay [2]; above 73.5 µM in assay [3]; 40.7 µM in assay [4]; above 96.3 µM in assay [5]; above 96.8 µM in [6]. Besides, the TGI in assay [7] is 69.3 µM; in assay [8], 31 µM; in assay [9] it was above 71 µM; in assay [10], above 74.7 µM.
For the compound `Cc1c(Cl)c(=O)oc2cc(OC/C=C3\CCC(=O)O3)ccc12`, the GI50 was 17.7 µM in [1]; 17.9 µM in assay [2]; 23.6 µM in [3]; 15.6 µM in assay [4]; 27.8 µM in assay [5]; 34.6 µM in assay [6]. For the same compound, the GI50 in assay [7] was 7.63 µM; in assay [8] it was 26.9 µM; in assay [9], 13.8 µM; in assay [10], 14.7 µM. Also, the TGI in assay [1] is 51.7 µM; in assay [2], 37.5 µM; in assay [3] it was 66.1 µM; in assay [4], 29.7 µM; in [5] it was 80 µM; in assay [6] it was above 100 µM. The TGI was 42.6 µM in assay [7], above 100 µM in assay [8], 32.6 µM in [9] and 33.1 µM in assay [10].
As for `O=C1Nc2cc(-c3cccc(O)c3)ccc2/C1=C/c1ccc[nH]1`, the GI50 was 3.5 µM in assay [1]; 1.31 µM in [2]; 2.3 µM in assay [3]; 1.31 µM in assay [4]; 2.89 µM in [5]; 2.79 µM in assay [6]. Further, the GI50 in [7] is 0.588 µM; in assay [8], 0.46 µM; in assay [9], 0.833 µM; in assay [10] it was 1.43 µM. The TGI in [1] was found to be 15.1 µM; in assay [2] it was 4.53 µM; in assay [3] it was 8.55 µM; in assay [4], 3.11 µM; in assay [5], 15.4 µM; in assay [6], 11.4 µM. For the same compound, the TGI amounted to 5.83 µM in assay [7], 3.96 µM in assay [8], 9.19 µM in assay [9] and 5.85 µM in [10].
As for `CC(C)c1ccc(C2NC(=S)NC3=C2c2ccccc2C3=O)cc1` (stereo unspecified), the TGI in assay [1] was above 55.2 µM; in assay [2] it was 36.7 µM; in assay [3] it was above 57.1 µM; in assay [4] it was 35.1 µM; in [5], above 64.2 µM; in [6] it was above 64.6 µM. Further, the TGI in [7] is above 62.4 µM; in [8], above 67.3 µM; in assay [9] it was above 57.1 µM; in assay [10] it was above 56.7 µM.
As to `CCc1cccc(C(C)C)c1NC(=O)CCl`, the TGI in assay [1], in assay [2], in [4], in [6], in assay [7] and in assay [9] was above 100 µM throughout. The TGI in assay [10] is above 100 µM.
As to `Cc1ccc(S(=O)(=O)NC(=O)NCCc2ccccc2)cc1`, the TGI in assay [1], in assay [2], in [3], in [4], in assay [5] and in assay [6] was above 100 µM throughout. The TGI in assay [7], in assay [8], in assay [9] and in assay [10] was above 100 µM each time.
As to `Nc1ccc(-c2cc(C(=O)Nc3nccs3)[nH]c(=S)n2)cc1`, the TGI in assay [1], in [2], in [4], in assay [5], in assay [6] and in [7] was above 100 µM throughout. Besides, the TGI in [9] and in assay [10] was above 100 µM in each case.
In the case of `C[P+](C)(C)C`, the TGI in assay [1], in assay [2], in [3], in [4], in assay [5] and in assay [6] was above 100 µM each time. The TGI in assay [7], in assay [8], in assay [9] and in assay [10] was above 100 µM each time.
As for `CN1CCN(c2ccc(OC(F)(F)F)c(Nc3ncc4c(n3)-c3c(c(C(N)=O)nn3CCO)CC4)c2)CC1`, the GI50 in [1] was 0.0611 µM and 0.0674 µM; in assay [2] it was 0.0582 µM and 0.145 µM; in [3], 0.0723 µM and 0.0547 µM; in assay [4], 0.0372 µM and 0.0519 µM; in [5] it was 0.055 µM and 0.0577 µM; in [6], 4.26 µM and 1.21 µM. For the same compound, the GI50 in [7] was 0.774 µM and 0.324 µM; in [8], 0.0391 µM and 0.0849 µM; in [10], 0.037 µM and 0.0424 µM. The TGI is above 100 µM in assay [1]; 11.7 µM and 1.49 µM in assay [2]; 27.1 µM and > 10 µM in assay [3]; 16.1 µM and > 3.87 µM in assay [4]; 51.8 µM and > 10 µM in [5]; 50.4 µM and > 10 µM in assay [6]. For the same compound, the TGI was 35 µM and > 10 µM in assay [7]; 14.9 µM and > 10 µM in assay [8]; 18.2 µM and > 10 µM in assay [10].
Turning to `Cc1cccc(C)c1NC(=O)CCC/C(CC(=O)c1ccc(F)cc1)=N\NC(=O)C(=O)NN`, the TGI in assay [1], in [2], in [4], in assay [5], in assay [6] and in assay [7] was above 100 µM each time. Moreover, the TGI in [8], in assay [9] and in assay [10] was above 100 µM throughout.
With `Cn1c(=O)nc2n(-c3ccc(Cl)cc3)c(-c3ccccc3)c(-c3ccccc3)nc-2c1=O`, the TGI was above 100 µM in [1]; above 100 µM in assay [2]; 66.7 µM in [3]; above 100 µM in [5]; 58.8 µM in assay [6]; 71.1 µM in [7]. Moreover, the TGI in assay [8] is 62.5 µM; in assay [9], above 100 µM; in assay [10], 82.1 µM.
With `C[C@H]1C/C=C/[C@H]2[C@@H]3O[C@]3(C)[C@@H](C)[C@H]3[C@H](Cc4ccccc4)NC(=O)[C@]32OC(=O)O/C=C/[C@@](C)(O)C1=O`, the GI50 in assay [1] is 0.0174 µM; in [2] it was 0.025 µM; in [3], 0.0125 µM and 0.025 µM; in [4], < 0.01 µM and 0.025 µM; in assay [6], 0.025 µM; in assay [7], 0.235 µM and 0.0493 µM. In addition, the GI50 in assay [8] was 0.0125 µM and 0.025 µM; in assay [10] it was 0.025 µM. Also, the TGI in [3] was 0.185 µM and 0.164 µM and 0.067 µM; in [5], above 95.4 µM; in assay [7], 76.2 µM and 44.9 µM and 32.2 µM; in assay [8] it was 43.8 µM and 125 µM and 36.9 µM.
`C[C@]12CC[C@@H]3c4ccc(O)cc4CC[C@H]3[C@@H]1CC[C@@H]2NS(=O)(=O)c1ccc(Br)cc1`: the GI50 in assay [1] is 3.94 µM; in [2], 2.1 µM; in assay [3] it was 2.77 µM; in assay [5], 2.31 µM; in assay [6], 2.04 µM; in [7], 2.68 µM. In addition, the values for the GI50 in assay [8], in assay [9] and in [10] were 2.15 µM, 3.84 µM and 2.18 µM, respectively. In addition, the TGI in assay [1] amounted to 16.9 µM; in [2] it was 9.15 µM; in [3], 6.14 µM; in [5], 6.03 µM; in assay [6], 4.17 µM; in assay [7], 7.37 µM. Besides, the values for the TGI in assay [8], in assay [9] and in assay [10] were 4.81 µM, 12.2 µM and 4.43 µM, respectively.
With `CCOC(=O)C1C=C2O[C@@H]3OC4(CCCCC4)O[C@@H]3C2C2C(=O)CCC(=O)[C@@]12C(=O)OC` (stereo partly specified), the TGI in assay [1], in [2], in assay [3], in [4], in assay [5] and in assay [6] was above 100 µM in each case. In addition, the TGI in assay [7], in assay [8] and in assay [10] was above 100 µM throughout.
On to `Nc1c(C(=O)Nc2ccccn2)sc2nc3c(cc12)C(O)CCC3` (stereo unspecified), for which the GI50 is 2.13 µM in assay [1]; 1.66 µM in assay [2]; 2.9 µM in assay [3]; 3.09 µM in assay [4]; 2.54 µM in assay [5]; above 50 µM in assay [6]. Moreover, the GI50 in assay [7] was 1.84 µM; in assay [8], 1.88 µM; in [10], 1.35 µM. Further, the TGI in assay [1], in [2], in assay [3], in [4], in [5] and in [6] was above 50 µM throughout. Also, the figures for the TGI in assay [7], in [8] and in assay [10] were above 50 µM, above 50 µM and 4.11 µM, respectively.
Regarding `C/C(=N\NC(=O)C[N+](C)(C)C)c1sc(-c2cccnc2)nc1C`, the TGI in [2], in [3], in [4], in assay [5], in assay [6] and in [7] was above 100 µM throughout. In addition, the TGI in [8], in assay [9] and in assay [10] was above 100 µM in each case.
Take `COc1cc(Cl)cc(-c2nn(-c3cccc(NC(=O)Nc4cccc(C(F)(F)F)c4)c3)cc2-c2ccncc2)c1`: the GI50 in assay [1] was 2.77 µM; in assay [2], 1.78 µM; in assay [3], 2.81 µM; in [4], 1.81 µM; in [5] it was 3.06 µM; in assay [6] it was 2.26 µM. Moreover, the figures for the GI50 in [7], in assay [8] and in assay [10] were 0.43 µM, 0.84 µM and 0.592 µM, respectively. For the same compound, the TGI in assay [1] is 35.9 µM; in assay [2], 13.9 µM; in assay [3], 13.1 µM; in assay [4] it was 7.04 µM; in assay [5], 30.1 µM; in assay [6], 11.5 µM. In addition, the results for the TGI in assay [7], in assay [8] and in assay [10] were 2.3 µM, 4.66 µM and 4.62 µM, respectively.
For `O=c1c2cc(Br)cc(Br)c2nc(CCCl)n1-c1ccc(O)c([N+](=O)[O-])c1`, the TGI in assay [1] came to 38.2 µM; in assay [2], 39.2 µM; in [3], 33 µM; in assay [5] it was 33.1 µM; in assay [6], 37.1 µM; in assay [7] it was 56.1 µM. The TGI in assay [8] turned out to be 42.1 µM; in [9], 32.7 µM; in assay [10], 33.7 µM.
`Cc1cc(N(CCC#N)CCC#N)ccc1N=Nc1cc(Cl)ccc1Cl`: the TGI in assay [1] was 35.9 µM; in assay [2] it was 28.3 µM; in assay [3], 35.3 µM; in assay [4], 14.2 µM; in assay [5] it was 27.4 µM; in assay [6], 25.2 µM. Also, the figures for the TGI in assay [7], in [9] and in assay [10] were 34.7 µM, 23.8 µM and 18.2 µM, respectively.
Take `O=C(Nc1cccc(-n2cc(-c3ccncc3)c(-c3ccc(O)c(Cl)c3)n2)c1)c1ccc2c(c1)OCCO2`: the GI50 is above 100 µM in assay [1]; 4 µM in assay [2]; above 100 µM in [3]; 4.77 µM in [4]; above 100 µM in [5]; 12.2 µM in [6]. In addition, the GI50 in [7] is 2.19 µM; in [8] it was 6.2 µM; in [9], above 100 µM. Also, the TGI in assay [1], in [2], in assay [3], in assay [4], in [5] and in [6] was above 100 µM each time. The TGI in [7], in assay [8] and in [9] was above 100 µM each time.

The values are drawn from PubChem BioAssay (NCI).
